{
  "source": "patent US20040171681A1",
  "about": "“Medicines and medicinal kits” (priority 2001, published 2004)",
  "test_system": "ocular hypertension models",
  "assay": "Test Example 1: ocular tension in rabbit ocular hypertension models (hypertonic saline) after eye drop solutions",
  "assay_type": "in vivo, Domesticated rabbits",
  "settings": "rabbits given 100 μl 5 w/v % hypertonic saline, 50 μl eye drop solution, mean ± standard error",
  "description": "Domesticated rabbits intravenously administered with 100 μl of a 5 w/v % hypertonic saline solution were used as ocular hypertension models. After intravenously administering the hypertonic saline solution, 50 μl of each of the eye drop solutions were administered and the ocular tension was measured 60 and 120 minutes thereafter.",
  "data": [
    {"compound": "CC(C)OC(=O)CCC/C=C\\C[C@@H]1[C@@H](CC[C@@H](O)CCc2ccccc2)[C@H](O)C[C@@H]1O", "note": "[Latanoprost, latanoprost]", "values": [
      {"measurement": "Ocular tension change (mmHg) 60 minutes", "setting": "60 minutes after", "value": "22.7 ± 1.2", "unit": "mmHg"},
      {"measurement": "Ocular tension change (mmHg) 120 minutes", "setting": "120 minutes after", "value": "9.8 ± 1.9", "unit": "mmHg"}
    ]}
  ]
}
